Measured values as given in patent US20160235752A1, “COMPOSITIONS, METHODS OF USE, AND METHODS OF TREATMENT” (THE UNIVERSITY OF NEW ORLEANS, priority 2013, published 2016).
In brackets after ≈: the same amount, converted by molar mass.

Columns and labels:
Format in all cases: cell-based
[1] = tested on: Candida albicans (ATCC no. 10231); assay: MIC determination by broth microdilution (NCCLS), visual scoring
Outline: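 NCCLS broth microdilution in RPMI 1640 with 10 mM HEPES, final compound 0.5–128 μg/mL, DMSO ≤1%. Inoculum from 0.5 McFarland stock diluted 1:50; incubated 35 °C for 48–72 h. MIC scored visually as lowest concentration giving ~80% growth reduction versus drug-free wells.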

[2] = tested on: Candida glabrata (ATCC no. 48435); assay: as above
[3] = tested on: Candida albicans (ATCC no. 10231) and Candida glabrata (ATCC no 48435); assay: Antifungal activity, text statements that do not say which fungus
Protocol: The antifungal activity of the 2,4,6-pyrimidinetrione analogs shown in Schemes 2-6 were evaluated in vitro using Candida albicans (ATCC no. 10231) and Candida glabrata (ATCC no 48435). All assays were done in accordance with NCCLS reference documents^29. The results of these screenings are summarized in Tables 1-9 as the minimal inhibitory concentrations that inhibited more than 80% fungal growth as compared to the positive controls in 1% DMSO and RPMI media. All MIC screens were done using a visual scoring method as opposed to spectroscopic methods of analysis, due to the physical properties of many of the compounds altering their absorbance spectra relative to the positive, negative and drug controls.
None of the compounds tested over the course of these studies were soluble in water and DMSO was used to dilute each compound tested. Master stock concentrations of all tested compounds were prepared to ensure that the maximum final concentration of DMSO was 1% or less. Subsequent 2-fold serial dilutions were made using sterile water to a final concentration of 1280-5.00 μg/ml. A final 10-fold dilution of each drug was made by aliquotting 0.1 mL of each drug dilution into 0.9 mL of fungal suspension in RPMI 1640 media with 10 mM HEPES buffer added (see methodology below), giving final concentrations tested in the range of 128-0.5 μg/ml.
Antifungal susceptibility studies and minimal inhibitory concentrations (MIC) values for Candida albicans (ATCC no. 10231) and Candida glabrata (ATCC no. 48435) were determined by the broth microdilution technique in accordance with NCCLS reference documents. Microdilution panels ranged from 0.5 to 128 μg/mL. All organisms were subcultured on Sabouraud agar and passaged to ensure purity and viability. The initiating inocula were prepared by picking 5-7 isolated colonies ˜1 mm in diameter from freshly prepared YM agar plates. […] Growth was scored visually. […]

[4] = Table 7, Phenylhydrazones of 5-Acylpyrimidinetriones
[5] = Table 5, Schiff Bases of 5-acylpyrimidinetriones
[6] = Table 8, N-Acylhydrazones of 5-Acylpyrimidinetriones

Compound: CC(=NNc1ccc([N+](=O)[O-])cc1)C1C(=O)NC(=O)N(c2ccccc2)C1=O (stereo not drawn) [BA28]
- MIC80 C. albicans [1, 4]: 31.5 µg/mL (≈ 82.6 µM)
- MIC80 C. glabrata [2, 4]: 16 µg/mL (≈ 42 µM)
- inhibition of fungal growth (in words) [3]: greatly reduced inhibition

Compound: O=C1NC(=O)C(C=Nc2ccc(O)cc2)C(=O)N1 [BA81]
- MIC80 C. albicans [1, 5]: — (none of the 5-acyl-2,4,6-pyrimidinetriones, 5-alkylated pyrimidinetriones or the 5,5-dialkylated pyrimidinetriones showed antifungal activity through 125 μg/mL)
- MIC80 C. glabrata [2, 5]: — (none of the 5-acyl-2,4,6-pyrimidinetriones, 5-alkylated pyrimidinetriones or the 5,5-dialkylated pyrimidinetriones showed antifungal activity through 125 μg/mL)

Compound: CN1C(=O)C(C=Nc2ccncc2)C(=O)N(C)C1=O [BA82]
- MIC80 C. albicans [1, 5]: — (none of the 5-acyl-2,4,6-pyrimidinetriones, 5-alkylated pyrimidinetriones or the 5,5-dialkylated pyrimidinetriones showed antifungal activity through 125 μg/mL)
- MIC80 C. glabrata [2, 5]: — (none of the 5-acyl-2,4,6-pyrimidinetriones, 5-alkylated pyrimidinetriones or the 5,5-dialkylated pyrimidinetriones showed antifungal activity through 125 μg/mL)

Compound: O=C1NC(=O)C(C=Nc2ccncc2)C(=O)N1 [BA83]
- MIC80 C. albicans [1, 5]: — (none of the 5-acyl-2,4,6-pyrimidinetriones, 5-alkylated pyrimidinetriones or the 5,5-dialkylated pyrimidinetriones showed antifungal activity through 125 μg/mL)
- MIC80 C. glabrata [2, 5]: — (none of the 5-acyl-2,4,6-pyrimidinetriones, 5-alkylated pyrimidinetriones or the 5,5-dialkylated pyrimidinetriones showed antifungal activity through 125 μg/mL)

Compound: CC(=Nc1ccncc1)C1C(=O)N(C)C(=O)N(C)C1=O [BA84]
- MIC80 C. albicans [1, 5]: — (none of the 5-acyl-2,4,6-pyrimidinetriones, 5-alkylated pyrimidinetriones or the 5,5-dialkylated pyrimidinetriones showed antifungal activity through 125 μg/mL)
- MIC80 C. glabrata [2, 5]: — (none of the 5-acyl-2,4,6-pyrimidinetriones, 5-alkylated pyrimidinetriones or the 5,5-dialkylated pyrimidinetriones showed antifungal activity through 125 μg/mL)

Compound: C/C(=N\Nc1ccccc1)C1C(=O)NC(=O)NC1=O [BA85, 5-[(1E)-1-(2-phenylhydrazinylidene)ethyl]pyrimidine-2,4,6-trione]
- MIC80 ([1]; Candida albicans, ATCC10231, read-out: MIC80 C. albicans): 2 µg/mL (≈ 7.68 µM)
- MIC80 ([2]; Nakaseomyces glabratus, ATCC48435, read-out: MIC80 C. glabrata): 2 µg/mL (≈ 7.68 µM)

Compound: COC(=O)NN=C(C)C1C(=O)NC(=O)NC1=O [BA86]
- MIC80 C. albicans [1, 6]: — (none of the 5-acyl-2,4,6-pyrimidinetriones, 5-alkylated pyrimidinetriones or the 5,5-dialkylated pyrimidinetriones showed antifungal activity through 125 μg/mL)
- MIC80 C. glabrata [2, 6]: — (none of the 5-acyl-2,4,6-pyrimidinetriones, 5-alkylated pyrimidinetriones or the 5,5-dialkylated pyrimidinetriones showed antifungal activity through 125 μg/mL)

Compound: CC(=Nc1ccc(O)cc1)C1C(=O)NC(=O)NC1=O [BA87]
- MIC80 C. albicans [1, 5]: — (none of the 5-acyl-2,4,6-pyrimidinetriones, 5-alkylated pyrimidinetriones or the 5,5-dialkylated pyrimidinetriones showed antifungal activity through 125 μg/mL)
- MIC80 C. glabrata [2, 5]: — (none of the 5-acyl-2,4,6-pyrimidinetriones, 5-alkylated pyrimidinetriones or the 5,5-dialkylated pyrimidinetriones showed antifungal activity through 125 μg/mL)

Compound: CC(=Nc1ccncc1)C1C(=O)NC(=O)NC1=O [BA88]
- MIC80 C. albicans [1, 5]: — (none of the 5-acyl-2,4,6-pyrimidinetriones, 5-alkylated pyrimidinetriones or the 5,5-dialkylated pyrimidinetriones showed antifungal activity through 125 μg/mL)
- MIC80 C. glabrata [2, 5]: — (none of the 5-acyl-2,4,6-pyrimidinetriones, 5-alkylated pyrimidinetriones or the 5,5-dialkylated pyrimidinetriones showed antifungal activity through 125 μg/mL)

Compound: O=C1NC(=O)C(C=Nc2ccccc2)C(=O)N1 [BA89]
- MIC80 C. albicans [1, 5]: — (none of the 5-acyl-2,4,6-pyrimidinetriones, 5-alkylated pyrimidinetriones or the 5,5-dialkylated pyrimidinetriones showed antifungal activity through 125 μg/mL)
- MIC80 C. glabrata [2, 5]: — (none of the 5-acyl-2,4,6-pyrimidinetriones, 5-alkylated pyrimidinetriones or the 5,5-dialkylated pyrimidinetriones showed antifungal activity through 125 μg/mL)

Compound: CN1C(=O)C(C=Nc2ccccc2)C(=O)N(C)C1=O [BA90]
- MIC80 C. albicans [1, 5]: — (none of the 5-acyl-2,4,6-pyrimidinetriones, 5-alkylated pyrimidinetriones or the 5,5-dialkylated pyrimidinetriones showed antifungal activity through 125 μg/mL)
- MIC80 C. glabrata [2, 5]: — (none of the 5-acyl-2,4,6-pyrimidinetriones, 5-alkylated pyrimidinetriones or the 5,5-dialkylated pyrimidinetriones showed antifungal activity through 125 μg/mL)

Compound: CC(=Nc1ccccc1)C1C(=O)N(C)C(=O)N(C)C1=O [BA91]
- MIC80 C. albicans [1, 5]: — (none of the 5-acyl-2,4,6-pyrimidinetriones, 5-alkylated pyrimidinetriones or the 5,5-dialkylated pyrimidinetriones showed antifungal activity through 125 μg/mL)
- MIC80 C. glabrata [2, 5]: — (none of the 5-acyl-2,4,6-pyrimidinetriones, 5-alkylated pyrimidinetriones or the 5,5-dialkylated pyrimidinetriones showed antifungal activity through 125 μg/mL)

Compound: CC(=Nc1ccccc1)C1C(=O)NC(=O)NC1=O [BA92]
- MIC80 C. albicans [1, 5]: — (none of the 5-acyl-2,4,6-pyrimidinetriones, 5-alkylated pyrimidinetriones or the 5,5-dialkylated pyrimidinetriones showed antifungal activity through 125 μg/mL)
- MIC80 C. glabrata [2, 5]: — (none of the 5-acyl-2,4,6-pyrimidinetriones, 5-alkylated pyrimidinetriones or the 5,5-dialkylated pyrimidinetriones showed antifungal activity through 125 μg/mL)

Compound: O=C1NC(=O)C(C=Nc2ccccc2O)C(=O)N1 [BA93]
- inhibitory activity of Candida albicans ([1]; Schiff base derivatives, Table 5): showed inhibitory activity
- MIC80 C. albicans ([1]; Table 5, values marked *: compound displayed MIC with <50% inhibition): 8* μg/mL
- MIC80 C. glabrata [2, 5]: — (none of the 5-acyl-2,4,6-pyrimidinetriones, 5-alkylated pyrimidinetriones or the 5,5-dialkylated pyrimidinetriones showed antifungal activity through 125 μg/mL)

Compound: CN1C(=O)C(C=Nc2cccc(O)c2)C(=O)N(C)C1=O [BA95]
- MIC80 C. albicans [1, 5]: — (none of the 5-acyl-2,4,6-pyrimidinetriones, 5-alkylated pyrimidinetriones or the 5,5-dialkylated pyrimidinetriones showed antifungal activity through 125 μg/mL)
- MIC80 C. glabrata [2, 5]: — (none of the 5-acyl-2,4,6-pyrimidinetriones, 5-alkylated pyrimidinetriones or the 5,5-dialkylated pyrimidinetriones showed antifungal activity through 125 μg/mL)
- inhibition of fungal growth (in words) [3]: inactive

Compound: O=C1NC(=O)C(C=Nc2cccc(O)c2)C(=O)N1 [BA96]
- MIC80 C. albicans [1, 5]: — (none of the 5-acyl-2,4,6-pyrimidinetriones, 5-alkylated pyrimidinetriones or the 5,5-dialkylated pyrimidinetriones showed antifungal activity through 125 μg/mL)
- MIC80 C. glabrata [2, 5]: — (none of the 5-acyl-2,4,6-pyrimidinetriones, 5-alkylated pyrimidinetriones or the 5,5-dialkylated pyrimidinetriones showed antifungal activity through 125 μg/mL)
- inhibition of fungal growth (in words) [3]: inactive
